In experiment [1] the test system is Locusta migratoria. Description: In vitro inhibitory activity of compound on ecdysone biosynthesis in larval prothoracic glands of Locusta migratoria; NI: No inhibition was observed. It counts as functional.
The test system of experiment [2] is Locusta migratoria. Description: In vitro inhibitory activity of compound on ecdysone biosynthesis in larval prothoracic glands of Locusta migratoria at 10e-5 M concentration. Format: functional.

Here are results for 5 compounds from ChEMBL document CHEMBL1127108, “Synthesis of ecdysteroid inhibitors of ecdysone biosynthesis. Inhibition of the C-25 hydroxylation” (1993).

By inhibition is commonly meant the relative decrease from the control value, in per cent.

In the case of `CC(C1CCC2C3CC=C4C[C@@H](O)CC[C@]4(C)C3CC[C@@]21C)[C@@H](O)C#C[Si](C)(C)C` (stereo not given in full), the inhibition entry in the experiment with Locusta migratoria [1] is “No inhibition”.

In the experiment on Locusta migratoria [2], `C#C[C@H](O)C(C)C1CCC2C3CC=C4C[C@@H](O)CC[C@]4(C)C3CC[C@@]21C` (stereo not given in full) came in with an inhibition at 10 µM of 36%.

In turn, `C#CC[C@H](O)C(C)C1CC[C@H]2[C@@H]3CC=C4C[C@@H](O)CC[C@]4(C)[C@H]3CC[C@]12C` (stereo not given in full) came in with an inhibition at 10 µM in the experiment on Locusta migratoria [2] of 37%.

In turn, `C#CC[C@@H](O)C(C)C1CC[C@H]2[C@@H]3CC=C4C[C@@H](O)CC[C@]4(C)[C@H]3CC[C@]12C` (stereo not given in full) showed an inhibition at 10 µM with Locusta migratoria [2] of 36%.

In the case of `C#CC[C@@H](O)C(C)C1CCC2C3CC=C4C[C@@H](O)CC[C@]4(C)C3CC[C@@]21C` (stereo not given in full), at 10 µM the inhibition in the experiment on Locusta migratoria [2] was 66%.
